Measured values reported in patent US5650398A, “Drug delivery enhancement via modified saponins” (Cambridge Biotech Corporation, priority 1995, dated 1997).

Key:
Sprague-Dawley rats = assay: Intranasal delivery of gentamicin, serum gentamicin by fluorescence polarization immunoassay; assay type: in vivo; conditions: 5 mg/kg gentamicin, 1.32 mM enhancer
Description: Experimental Conditions: Sprague-Dawley rats (male, 205-240 g) were anesthetized by intramuscular injection of 7.5 mg/kg xylazine with 50 mg/kg ketamine. Gentamicin (40 μl) was administered intranasally at time 0. Formulations contained 5 mg/kg gentamicin, with and without 1.32 mM QH-957. Blood was withdrawn from the tail vein at various timepoints. Serum gentamicin levels were measured using a fluorescence polarization immunoassay. The assay was linear from 0.3-10.0 μg/ml, and the limit of detection was 0.3 μg/ml. A value of 0.3 μg/ml was used in plotting the timepoints with serum levels below the limit of detection. Groups of 3 animals were used. Data are presented as ±standard error of the mean.
Experimental Conditions: Sprague-Dawley rats (male, 205-240 g) were anesthetized by intramuscular injection of 7.5 mg/kg xylazine with 50 mg/kg ketamine. Gentamicin (40 μl) was administered intranasally at time 0. […] Serum gentamicin levels were measured using a fluorescence polarization immunoassay. […]
Sprague-Dawley rats (male, 205-240 g) were anesthetized by intramuscular injection of 7.5 mg/kg xylazine with 50 mg/kg ketamine. […] Serum gentamicin levels were measured using a fluorescence polarization immunoassay. […] The area under the serum gentamicin concentration curve (AUC) was calculated using the trapezoidal rule. […]

rabbits = conditions: nasal administration; cited from earlier work
[1] = literature values; cited from earlier work

Structure (SMILES) | enhanced intranasal permeation of gentamicin (serum gentamicin levels) (Sprague-Dawley rats) | total absorption of β-interferon relative to intravenous administration (rabbits) [%] | concentration needed for drug delivery [1] [mM]
C[C@H](CCC(=O)NCC(=O)[O-])[C@H]1CC[C@H]2[C@@H]3[C@H](O)C[C@@H]4C[C@H](O)CC[C@]4(C)[C@H]3C[C@H](O)[C@]12C.[Na+] [sodium glycocholate] | did not | 2.2 | 20.5
CC1(C)[C@@H](O[C@H]2O[C@H](C(=O)O)[C@@H](O)[C@H](O)[C@H]2O[C@@H]2O[C@H](C(=O)O)[C@@H](O)[C@H](O)[C@H]2O)CC[C@]2(C)[C@H]3C(=O)C=C4[C@@H]5C[C@@](C)(C(=O)O)CC[C@]5(C)CC[C@@]4(C)[C@]3(C)CC[C@@H]12 [glycyrrhizic acid] | did not |  | 23.8
